Experimental data published in PubChem BioAssay AID1996.
Values after ≈ are worked out from the molar mass of the structure shown.

Settings: buffer; pH 7.4; 200.0 µM

Row | Structure (SMILES) | solubility kinetic
1 | N#Cc1ccc(COC(=O)c2cnc(Cl)c(Cl)c2)cc1 | 1.4 µg/mL (≈ 4.56 µM)
2 | O=C(CSc1nnc(-c2ccccn2)o1)Nc1ccc(F)cc1 | > 49.6 µg/mL
3 | COc1cccc(CN(C)C(=O)Cc2c[nH]c3ccccc23)c1 | > 46.3 µg/mL
4 | CC(C)c1ccc(OCC(=O)Nc2ccc3oc(=O)ccc3c2)cc1 | < 0.7 µg/mL
5 | O=C(O)CC(c1ccc(Cl)cc1)N1Cc2ccccc2C1=O (centres undefined) | > 47.4 µg/mL
6 | CCCC(=O)Nc1ccc(S(=O)(=O)Nc2cc(OC)ncn2)cc1 | > 52.6 µg/mL
7 | O=C(c1cnsn1)N1CCC(CO)(Cc2cccc(F)c2)CC1 | 44.4 µg/mL (≈ 132 µM)
8 | CC(C)Oc1ccc(C(=O)Nc2ccc3c(c2)n(C)c(=O)n3C)cc1 | 13.5 µg/mL (≈ 39.8 µM)
9 | CCCCc1ccc(NC(=O)Cn2c(=O)c(N3CCCCC3)c(N)n(C)c2=O)cc1 | 26.6 µg/mL (≈ 64.3 µM)
10 | CC(=O)c1ccc(N=C2C(=O)Nc3ccccc32)cc1 | 36.6 µg/mL (≈ 138 µM)
11 | CSc1ncccc1C(=O)OCC(=O)Nc1ccc2c(c1)OCO2 | 2.7 µg/mL (≈ 7.8 µM)
12 | NS(=O)(=O)c1ccc(NC(=O)C(=O)NCCC(=O)O)cc1 | > 47.3 µg/mL
13 | COc1ccc(NC(=O)CN2C(=O)NC3(CCCCC3C)C2=O)cc1S(=O)(=O)N1CCOCC1 (centres undefined) | > 74.2 µg/mL
14 | Cc1ccc(OCCCC(=O)NC2CCCCC2)cc1 | 15.7 µg/mL (≈ 57 µM)
15 | Cc1nc(SCC(=O)NC2CCCCC2C)nc(C)c1C (centres undefined) | > 46.1 µg/mL
16 | O=C(Nc1c[nH]c(=O)[nH]c1=O)c1ccccc1Cl | > 39.8 µg/mL
17 | O=C(NCc1cccnc1)Nc1ccc(Br)cc1Cl | 19.2 µg/mL (≈ 56.4 µM)
18 | Cc1nc(SC(C(N)=O)c2ccccc2)c(C#N)c(C)c1C (centres undefined) | 1 µg/mL (≈ 3.21 µM)
19 | Cc1ccn2cc(-c3cc4ccccc4oc3=O)nc2c1 | 3.1 µg/mL (≈ 11.2 µM)
20 | O=C1ON=C(c2cccc([N+](=O)[O-])c2)/C1=C/c1ccc(O)cc1 | > 46.5 µg/mL
21 | O=C(NCc1ccc(Cl)cc1)N1CCOCC1 | > 38.2 µg/mL
22 | Cn1c(=O)c2ccccc2n(CC(=O)NC2CCCCC2)c1=O | 8 µg/mL (≈ 25.4 µM)
23 | Cc1ccc(C(=O)NCCNC(=O)COc2ccccc2Cl)cn1 | > 52.2 µg/mL
24 | CC(C)(C)C(=O)Nc1ccc(-c2cc3cc(Cl)ccc3o2)cc1 | 0.8 µg/mL (≈ 2.44 µM)
25 | Cc1ccc(F)cc1NS(=O)(=O)c1ccc(Cl)s1 | > 45.9 µg/mL
26 | CCc1ccc(NC(=O)COc2ccc3c(c2)OCO3)cc1 | 4.8 µg/mL (≈ 16 µM)
27 | COc1cccc(NC(=O)CN(C)C(=O)C2=COCCO2)c1 | 43.1 µg/mL (≈ 141 µM)

Row | Structure (SMILES) | solubility kinetic
28 | COc1ccc(S(=O)(=O)N2CCN(CC(=O)N3CCOCC3)CC2)cc1OC | > 62 µg/mL
29 | Cc1c(C)c2ccc(OCC(=O)N3CCN(Cc4ccccc4)CC3)cc2oc1=O.Cl | 2.5 µg/mL
30 | Fc1cccc(CNc2ncnc3cc(Cl)ccc23)c1F | 3.8 µg/mL (≈ 12.4 µM)
31 | CC1Oc2ccccc2OC1C(=O)Nc1nccs1 (centres undefined) | 18.1 µg/mL (≈ 65.5 µM)
32 | CCCCCC1CC(CC(=O)Nc2ccc([N+](=O)[O-])cc2)OC1=O (centres undefined) | 0.5 µg/mL (≈ 1.5 µM)
33 | COc1ccccc1CC(=O)Nc1ncc(C)s1 | 8.4 µg/mL (≈ 32 µM)
34 | O=C(CNC(=O)c1ccc2c(c1)OCO2)Nc1ncccc1O | > 47.3 µg/mL
35 | O=C(NCc1ccncc1)C(=O)NCc1ccncc1 | > 40.5 µg/mL
36 | COc1ccc(C(=O)NCC(=O)OCC(=O)c2c(C)[nH]c3ccccc23)cc1OC | 6.1 µg/mL (≈ 14.9 µM)
37 | OCCN(CCO)CC(O)COc1ccc(Br)cc1 (centres undefined) | 6.7 µg/mL (≈ 20 µM)
38 | CC1(C)CC(NC(=S)NC2CC2)CC(C)(C)N1 | > 38.3 µg/mL
39 | COc1ccc(NC(=O)c2onc(C)c2Cl)cc1 | 10 µg/mL (≈ 37.5 µM)
40 | CC(C)c1ccccc1OCC(=O)N1CCCN(C)CC1 | > 43.6 µg/mL
41 | Cc1cc(C)c2c(CN3CCOCC3)cc(=O)oc2c1 | 37.2 µg/mL (≈ 136 µM)
42 | Cc1cccc(C)c1N1C(=O)CC(N2CCSCC2)C1=O (centres undefined) | > 45.7 µg/mL
43 | COCCNc1nc(SC)nc2sc3c(c12)CCN(C)C3 | 46.5 µg/mL (≈ 143 µM)
44 | CCOc1ccc(S(=O)(=O)/N=C(/Nc2ccc(C(C)=O)cc2)c2ccccc2)cc1 | 18.1 µg/mL (≈ 42.8 µM)
45 | CC1CN(c2nc3ccccc3nc2NS(=O)(=O)c2ccccc2)CC(C)O1 (centres undefined) | > 59.8 µg/mL
46 | Cc1ccc2c(CN3CCCCC3)cc(=O)oc2c1C | 22.6 µg/mL (≈ 83.3 µM)
47 | CCOC(=O)CC1C(=O)NCCN1C1CCCC1 (centres undefined) | > 38.1 µg/mL
48 | O=S(=O)(c1ccc2[nH]c3c(c2c1)CCCC3)N1CCCCC1 | 12.3 µg/mL (≈ 38.6 µM)
49 | CC1(C(=O)OCC(=O)Nc2ccc(Cl)cn2)CC1(Cl)Cl (centres undefined) | > 50.6 µg/mL
50 | Cc1ccc(NC(=S)N2CCC(NC(=O)c3ccco3)CC2)cc1C | 39.2 µg/mL (≈ 110 µM)
51 | CCCC(=O)Nc1ccc(-c2cn3cccnc3n2)cc1 | > 42 µg/mL
52 | Cc1snc(SCc2ccc(Cl)cc2)c1C#N | < 0.3 µg/mL
53 | O=C(Cn1cc(C(F)(F)F)ccc1=O)OCC(=O)c1ccc[nH]1 | > 49.2 µg/mL
54 | C=CCOc1cccc(C(=O)NC(c2ccccc2)C(C)C)c1 (centres undefined) | 1.2 µg/mL (≈ 3.88 µM)

Row | Structure (SMILES) | solubility kinetic
55 | CCCc1cc(=O)[nH]c(SCC(=O)c2cc(C)n(CC3CCCO3)c2C)n1 (centres undefined) | > 58.4 µg/mL
56 | CCN1CC2([N+](=O)[O-])CC=C(Cl)C([N+](=O)[O-])(C1)C2 (centres undefined) | 28.4 µg/mL (≈ 103 µM)
57 | CC(C)(C)S(=O)(=O)/C(C#N)=C/Nc1ccccn1 | > 39.8 µg/mL
58 | CCCn1c(=S)[nH]c2ccc(C(F)(F)F)cc21 | 20.7 µg/mL (≈ 79.5 µM)
59 | O=C(O)C(Cc1ccc(O)cc1)N1C(=O)c2ccccc2C1=O (centres undefined) | > 46.7 µg/mL
60 | CCc1ccc(/C=C2/C(=O)NC(=O)N2C(C)=O)cc1 | 18.6 µg/mL (≈ 72 µM)
61 | CC1CCCCC1NC(=O)Cn1cnc2c1c(=O)n(C)c(=O)n2C (centres undefined) | > 50 µg/mL
62 | CC(=O)C1C(c2ccc(C)cc2)c2c(noc2C)CC1(C)O (centres undefined) | 42.2 µg/mL (≈ 141 µM)
63 | O=c1nc(-c2ccccc2)c2cc(Br)ccc2[nH]1 | 1.8 µg/mL (≈ 5.98 µM)
64 | CC(=O)Nc1ccc2c(c1)nc(CCN1CCN(c3ccccn3)CC1)n2C | < 0.1 µg/mL
65 | CCc1c(C)nc(N2CCN(c3ccccc3F)CC2)[nH]c1=O | 5.6 µg/mL (≈ 17.7 µM)
66 | NC(=O)c1ccccc1N | > 20.4 µg/mL
67 | NC(=O)c1ccsc1NC(=O)Cc1ccc([N+](=O)[O-])cc1 | 12 µg/mL (≈ 39.3 µM)
68 | O=C(COC(=O)C1=Cc2ccccc2OC1)NCc1ccco1 | 5.6 µg/mL (≈ 17.9 µM)
69 | C[N+](C)(C)CC#CCOC(=O)Nc1cccc(Cl)c1.[Cl-] | > 47.6 µg/mL
70 | O=C(O)CCCC(=O)Nc1cccc([N+](=O)[O-])c1 | > 37.8 µg/mL
71 | CC1CCN(CCn2c(=S)[nH]c3ccccc3c2=O)CC1 | 43.3 µg/mL (≈ 143 µM)
72 | CCCN(Cc1ccco1)S(=O)(=O)c1ccc(OC)c(OC)c1 | 41.3 µg/mL (≈ 122 µM)
73 | COc1ccccc1NC(=O)NC1(C)CCS(=O)(=O)C1 (centres undefined) | > 44.8 µg/mL
74 | O=C1c2cccc3cccc(c23)C(=O)N1Cc1ccccc1 | < 0.6 µg/mL
75 | COc1cc(OC)cc(C(=O)NCCSCc2ccc(Cl)cc2)c1 | 5.2 µg/mL (≈ 14.2 µM)
76 | O=C(NC1CC1)C1CCN(C(=O)c2ccc(Cl)cc2)CC1 | 45.8 µg/mL (≈ 149 µM)
77 | O=C(NC1CCCCC1)N1CCN(c2ccc([N+](=O)[O-])cc2)CC1 | 12.7 µg/mL (≈ 38.2 µM)
78 | Cc1ccc(C(C)(c2ccc(N)cc2)c2ccc(N)cc2)cc1 | 10.3 µg/mL (≈ 34.1 µM)
79 | C=CCn1c(N2CCCC2)nc2c1c(=O)n(C)c(=O)n2C | > 43.4 µg/mL

Results, then the compound that gave them:

Row | solubility kinetic | Structure (SMILES)
80 | > 65.2 µg/mL | Cc1cc(C)n2c(SCC(=O)Nc3cc(S(=O)(=O)N(C)C)ccc3C)nnc2n1
81 | 60.1 µg/mL (≈ 144 µM) | COc1ccc(C(=O)NCC(=O)Nc2cccc(S(=O)(=O)N3CCCC3)c2)cc1
82 | > 43.5 µg/mL | CCOC(=O)C1=C(C)C(c2ccc(OC)cc2)NC(=O)N1 (centres undefined)
83 | > 56.8 µg/mL | Cc1cccc(Nc2nnc(SCC(=O)NCC3CCCO3)s2)c1C (centres undefined)
84 | 15.4 µg/mL (≈ 45.3 µM) | O=C(COC(=O)c1cc(=O)[nH]c2ccccc12)Nc1ccc(F)cc1
85 | > 45.7 µg/mL | CN1CCN(CCn2c(=S)[nH]c3ccccc3c2=O)CC1
86 | 44.4 µg/mL (≈ 139 µM) | CCOC(=O)C1CCN(C(=O)c2ccc3c(c2)OCCO3)CC1
87 | > 41.7 µg/mL | N#CCN1C(=O)C(=O)N(Cc2cccc(Cl)c2)C1=O
88 | 40.7 µg/mL (≈ 132 µM) | CCN1CCN(c2ccc(N=Cc3ccccc3O)cc2)CC1
89 | < 0.3 µg/mL | CC(C)(C)c1ccc(/C=C2\SC(=O)N=C2N)cc1
90 | > 43.1 µg/mL | O=C1c2ccccc2C(=O)N1S(=O)(=O)c1ccccc1
91 | 5.8 µg/mL (≈ 13.3 µM) | O=C(NCC(c1ccc(F)cc1)N1CCOCC1)c1ccc(OCc2ccccc2)cc1 (centres undefined)
92 | 1.6 µg/mL (≈ 4.73 µM) | COc1ccccc1NC(=O)c1ccc(-c2ccccc2[N+](=O)[O-])o1
93 | < 0.7 µg/mL | Oc1ccc(Br)cc1C1Nc2ccccc2S1 (centres undefined)
94 | 40.8 µg/mL (≈ 106 µM) | O=C(NC12CC3CC(CC(C3)C1)C2)c1ccc(N2CCNCC2)c([N+](=O)[O-])c1
95 | 42.7 µg/mL (≈ 140 µM) | O=C(NCCNC(=O)c1cnccn1)c1cccc(Cl)c1
96 | 11.1 µg/mL (≈ 34.4 µM) | COc1ccc(/C=C/C(=O)NC(=S)N2CCSCC2)cc1
97 | 31.7 µg/mL (≈ 145 µM) | O=C(CCCO)NC1Cc2ccccc2C1
98 | > 39.9 µg/mL | CCOC(=O)C1=C(C)NC(=O)NC1c1cccs1 (centres undefined)
99 | 22.5 µg/mL (≈ 70 µM) | Brc1ccc(CN2CCN(c3ccccc3)CC2)o1

Row | solubility kinetic | Structure (SMILES)
100 | 51.9 µg/mL (≈ 142 µM) | CCc1ccc(S(=O)(=O)NCC(O)COc2ccc(OC)cc2)cc1 (centres undefined)
101 | 1.4 µg/mL (≈ 9.71 µM) | Nc1cccc2cnccc12
102 | > 47.7 µg/mL | CCN(CC)CCC(C)OC(=O)c1ccc(O)cc1O.Cl (centres undefined)
103 | > 47.5 µg/mL | Cc1ccc(OCC(=O)NCCCNC(=O)c2ccco2)cc1
104 | > 35.3 µg/mL | OC(c1ccccc1)c1nccc2ccccc12 (centres undefined)
105 | > 35.9 µg/mL | CCOc1c(N2CC(C)OC(C)C2)c(=O)c1=O (centres undefined)
106 | 45.1 µg/mL (≈ 148 µM) | COCCCNC(=S)Nc1ccc(OC(F)F)cc1C
107 | > 41.3 µg/mL | O=C(/C=C/c1ccc2c(c1)OCO2)NCC1CCCO1 (centres undefined)
108 | 3.7 µg/mL (≈ 9.79 µM) | CCC1CCC2(CC1)NC(=O)N(CC(=O)NCc1ccc(Cl)cc1)C2=O (centres undefined)
109 | > 43.1 µg/mL | Cc1onc(-c2ccccc2)c1C(=O)NN1CCOCC1
110 | > 57.1 µg/mL | COc1ccc(-c2ccc(CCC(=O)O)n2NC(=O)c2ccc(O)cc2)cc1
111 | 6.6 µg/mL (≈ 22.4 µM) | O=C(CNC(=O)c1ccc(Cl)cc1)NC1CCCCC1
112 | > 41.6 µg/mL | COc1ccc(C(CC(=O)O)N2C(=O)CCC2=O)cc1 (centres undefined)
113 | > 71.2 µg/mL | CCOC(=O)[C@H](CCc1ccccc1)N[C@@H](C)C(=O)N1Cc2ccccc2C[C@H]1C(=O)O.Cl
114 | > 49.7 µg/mL | CC(=O)NCCC(=O)N1CCCC(N(C)CCc2ccccc2)C1 (centres undefined)
115 | 7.8 µg/mL (≈ 28.6 µM) | O=C(Nc1ccc2c(c1)CCC2)c1ccc(Cl)nc1
116 | 38.3 µg/mL (≈ 125 µM) | Cc1ccc2nc(SC(C)C(=O)N3CCOCC3)[nH]c2c1 (centres undefined)
117 | > 42.3 µg/mL | O=C(Nc1ccc(Cl)cc1)NC1CCCCNC1=O (centres undefined)
118 | 19.3 µg/mL (≈ 77.1 µM) | Oc1ccccc1CNc1cccc2cccnc12
119 | 34.7 µg/mL (≈ 106 µM) | Cc1ccc(N2C(=O)CC(Sc3nc(C)cc(C)n3)C2=O)cc1 (centres undefined)
